In test [1] the target is His-tagged KRAS G12D protein (Homo sapiens (Human), UniProt P01116, G12D). The test is described as follows: KRAS G12D TR-FRET Assay. In kind it is binding. The conditions noted are these: biotinylated KRPep-2d, 10 μM GDP. An outline of the steps: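 His-KRAS G12D (20 nM working solution) preincubated with compound 30 min at rt in HEPES pH 7.4 buffer with 10 μM GDP, then biotinylated KRPep-2d added for 1 h. Eu-anti-His/streptavidin-d2 TR-FRET 665/615 ratio; IC50 from 4-parameter logistic fit.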
His-tagged KRAS G12D protein, sequence (P01116-2 other isoform, or with tags, fused parts or gaps G12D): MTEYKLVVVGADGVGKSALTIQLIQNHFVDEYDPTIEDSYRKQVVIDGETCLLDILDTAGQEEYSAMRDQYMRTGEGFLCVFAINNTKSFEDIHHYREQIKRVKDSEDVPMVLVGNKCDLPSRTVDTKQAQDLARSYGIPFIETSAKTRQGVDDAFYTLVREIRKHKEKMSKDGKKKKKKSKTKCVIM
(TR-FRET usually uses a lanthanide donor and a delayed reading to cut background.)

Test [2] addresses GDP-bound KRAS protein (aa 1-169), G12D and C118A; SOS-mediated nucleotide exchange (Homo sapiens (Human), UniProt P01116, C118A/G12D). Description: KRAS G12D Coupled Nucleotide Exchange Assay. The conditions noted are these: 2 h compound pre-incubation, GTP, cRAF AlphaScreen. Type of test: biochemical. An outline of the steps: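 Read-out was AlphaScreen, with IC50 derived by 4-parameter logistic fitting. Before that, SOS (aa 564-1049) and GTP drove 30 min exchange on His-tagged KRAS 1-169 carrying G12D and C118A, following a 2 h compound preincubation in 25 mM HEPES pH 7.4, 10 mM MgCl2, 0.01% Triton X-100.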
(In Alpha technology, singlet oxygen from a donor bead excites a nearby acceptor bead.)

For test [3], the system named is Phosphorylation of ERK1/2 in AsPC-1 cells. Description: Phospho-ERK1/2 MSD Assay. Type of test: cell-based. An outline of the steps:
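AsPC-1 cells in 10% FBS RPMI 1640 were treated with a compound dose titration for 2 h at 37° C, then lysed in RIPA buffer with protease and phosphatase inhibitors. Phospho-ERK1/2 was measured by MSD whole-cell lysate immunoassay, and IC50 was derived by 4-parameter logistic fit.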

Setting [4] is: Homo sapiens, ASPC1, 2 h, read-out: 2 h p-ERK (AsPC-1 cells), IC50 (μM), AsPC-1 cells, 2 h compound treatment.
Setting [5] is: read-out: 2 h p-ERK (AsPC-1 cells), IC50, AsPC-1 cells, 2 h compound treatment.

The structures appear in SMILES notation. Read-outs that look alike come from different tables or passages of the source.

GDP-bound KRAS protein (aa 1-169), G12D and C118A; SOS-mediated nucleotide exchange, sequence (P01116 other isoform, or with tags, fused parts or gaps G12D/C118A): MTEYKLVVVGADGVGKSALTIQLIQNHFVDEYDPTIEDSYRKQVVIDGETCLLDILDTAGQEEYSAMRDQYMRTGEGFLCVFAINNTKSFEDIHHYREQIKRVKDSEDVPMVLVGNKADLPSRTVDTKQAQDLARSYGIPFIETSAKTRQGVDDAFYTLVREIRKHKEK

Regarding `N#Cc1c(N)sc2c(F)ccc(-c3c(Cl)cc4c(N5CCCCCCC5)nc(OC[C@@]56CCCN5C[C@H](F)C6)nc4c3F)c12` [Example 31, 2-Amino-4-(4-(azocan-1-yl)-6-chloro-8-fluoro-2-(((2R,7aS)-2-fluorotetrahydro-1H-pyrrolizin-7a(5H)-yl)methoxy)quinazolin-7-yl)-7-fluorobenzo[b] thiophene-3-carbonitrile], the IC50 (commonly the concentration that inhibits the measured activity by half) is 1 nM in test [1], 1 nM in test [2] and 0.187 µM in test [3] (setting [4]).
Take `N#Cc1c(N)sc2c(F)ccc(-c3c(Cl)cc4c(N5CCOC[C@H](O)C5)nc(OC[C@@]56CCCN5C[C@H](F)C6)nc4c3F)c12` [Example 30, 2-Amino-4-(6-chloro-8-fluoro-2-(((2R,7aS)-2-fluorotetrahydro-1H-pyrrolizin-7a(5H)-yl)methoxy)-4-((R)-6-hydroxy-1,4-oxazepan-4-yl)quinazolin-7-yl)-7-fluorobenzo[b] thiophene-3-carbonitrile]: the concentration for half-maximal inhibition (IC50) in test [1] is 0.4 nM; in test [2], 0.8 nM; in test [3] (setting [4]), 0.212 µM.
On to `CCC1(O)COCCN(c2nc(OC[C@@]34CCCN3C[C@H](F)C4)nc3c(F)c(-c4ccc(F)c5sc(N)c(C#N)c45)c(Cl)cc23)C1` (single isomer, unassigned) [Example 44], for which the half-inhibitory concentration (IC50) in test [1] came to 2 nM; in test [2], 3 nM; in test [3] (setting [5]) it was 0.032 µM.
As for `N#Cc1c(N)sc2c(F)ccc(-c3c(Cl)cc4c(C5CC5)nc(OC[C@@]56CCCN5C[C@H](F)C6)nc4c3F)c12` [Example 71, 2-Amino-4-(6-chloro-4-cyclopropyl-8-fluoro-2-(((2R,7aS)-2-fluorotetrahydro-1H-pyrrolizin-7a(5H)-yl)methoxy)quinazolin-7-yl)-7-fluorobenzo[b]thiophene-3-carbonitrile bis(2,2,2-trifluoroacetate)], the IC50 in test [1] turned out to be 11 nM; in test [2], 5 nM; in test [3] (setting [4]), 0.185 µM.
On the same counts, the results for `N#Cc1c(N)sc2c(F)ccc(-c3c(Cl)cc4c(N5CCCCC(S(N)(=O)=O)C5)nc(OC[C@@]56CCCN5C[C@H](F)C6)nc4c3F)c12` (stereo partly drawn) [Example 15, 1-(7-(2-Amino-3-cyano-7-fluorobenzo[b]thiophen-4-yl)-6-chloro-8-fluoro-2-(((2R,7aS)-2-fluorotetrahydro-1H-pyrrolizin-7a(5H)-yl)methoxy)quinazolin-4-yl)azepane-3-sulfonamide] are 3 nM, 4 nM and 0.296 µM.
The corresponding values for `COC[C@@H]1CCCN1c1nc(OC[C@@]23CCCN2C[C@H](F)C3)nc2c(F)c(-c3ccc(F)c4sc(N)c(C#N)c34)c(Cl)cc12` [Example 48, 2-Amino-4-(6-chloro-8-fluoro-2-(((2R,7a.S)-2-fluorotetrahydro-1H-pyrrolizin-7a(5H)-yl)methoxy)-4-((S)-2-(methoxymethyl)pyrrolidin-1-yl)quinazolin-7-yl)-7-fluorobenzo[b] thiophene-3-carbonitrile] are 45 nM, 21 nM and 3.06 µM.
On the same counts, the results for `N#Cc1c(N)sc2c(F)ccc(-c3c(Cl)cc4c(N5CCCC6(CCO6)C5)nc(OC[C@@]56CCCN5C[C@H](F)C6)nc4c3F)c12` (stereo partly drawn) [Example 20, 2-Amino-4-(6-chloro-8-fluoro-2-(((2R,7aS)-2-fluorotetrahydro-1H-pyrrolizin-7a(5H)-yl)methoxy)-4-(1-oxa-6-azaspiro[3.5]nonan-6-yl)quinazolin-7-yl)-7-fluorobenzo[b] thiophene-3-carbonitrile] are 22 nM, 26 nM and 1.02 µM.
As for `N#Cc1c(N)sc2c(F)ccc(-c3c(Cl)cc4c(N5CCCCC(F)C5)nc(OC[C@@]56CCCN5C[C@H](F)C6)nc4c3F)c12` (stereo partly drawn) [Example 27, 2-Amino-4-(6-chloro-8-fluoro-4-(3-fluoroazepan-1-yl)-2-(((2R,7aS)-2-fluorotetrahydro-1H-pyrrolizin-7a(5H)-yl)methoxy)quinazolin-7-yl)-7-fluorobenzo[b] thiophene-3-carbonitrile], the IC50 was 2 nM in test [1], 2 nM in test [2] and 0.043 µM in test [3] (setting [4]).
Take `N#Cc1c(N)sc2c(F)ccc(-c3c(Cl)cc4c(N5CCCCC5)nc(OC[C@@]56CCCN5C[C@H](F)C6)nc4c3F)c12` [Example 26, 2-Amino-4-(6-chloro-8-fluoro-2-(((2R,7aS)-2-fluorotetrahydro-1H-pyrrolizin-7a(5H)-yl)methoxy)-4-(piperidin-1-yl)quinazolin-7-yl)-7-fluorobenzo[6] thiophene-3-carbonitrile]: the half-inhibitory concentration (IC50) in test [1] amounted to 6 nM; in test [2] it was 7 nM; in test [3] (setting [4]), 0.601 µM.
Turning to `C=Cc1cc2c(N3CCOCC(C)(O)C3)nc(OC[C@@]34CCCN3C[C@H](F)C4)nc2c(F)c1-c1ccc(F)c2sc(N)c(C#N)c12` (stereo partly drawn) [Example 61, 2-Amino-7-fluoro-4-(8-fluoro-2-(((2R,7aS)-2-fluorotetrahydro-1H-pyrrolizin-7a(5H)-yl)methoxy)-4-(6-hydroxy-6-methyl-1,4-oxazepan-4-yl)-6-vinylquinazolin-7-yl)benzo[b]thiophene-3-carbonitrile], the concentration for half-maximal inhibition (IC50) in test [1] was determined as 5 nM; in test [2], 3 nM; in test [3] (setting [4]), 0.05 µM.
In the case of `CC1(O)COCCN(c2nc(OC[C@@]34CCCN3C[C@H](F)C4)nc3c(F)c(-c4ccc(F)c5sc(N)c(C#N)c45)c(Cl)cc23)C1` (single isomer, unassigned) [Example 24], the 50% inhibitory concentration (IC50) in test [1] stood at 3 nM; in test [2] it was 2 nM; in test [3] (setting [5]), 0.185 µM.
For `N#Cc1c(N)sc2c(F)ccc(-c3c(Cl)cc4c(N5CCC[C@@H](O)C5)nc(OC[C@@]56CCCN5C[C@H](F)C6)nc4c3F)c12` [Example 35, 2-Amino-4-(6-chloro-8-fluoro-2-(((2R,7aS)-2-fluorotetrahydro-1H-pyrrolizin-7a(5H)-yl)methoxy)-4-((R)-3-hydroxypiperidin-1-yl)quinazolin-7-yl)-7-fluorobenzo[b] thiophene-3-carbonitrile], the figures for the half-maximal inhibitory concentration (IC50) in test [1], in test [2] and in test [3] (setting [4]) were 4 nM, 5 nM and 0.199 µM, respectively.
On the same counts, the results for `CC1(C(N)=O)CCCN(c2nc(OC[C@@]34CCCN3C[C@H](F)C4)nc3c(F)c(-c4ccc(F)c5sc(N)c(C#N)c45)c(Cl)cc23)C1` (stereo partly drawn) [Example 11, 1-(7-(2-Amino-3-cyano-7-fluorobenzo[b]thiophen-4-yl)-6-chloro-8-fluoro-2-(((2R,7aS)-2-fluorotetrahydro-1H-pyrrolizin1 7a(5H)-yl)methoxy)quinazolin-4-yl)-3-methylpiperidine-3-carboxamide] are 7 nM, 7 nM and 0.677 µM.
On the same counts, the results for `N#Cc1c(N)sc2c(F)ccc(-c3c(Cl)cc4c(N5CCCC6(CC(=O)N6)C5)nc(OC[C@@]56CCCN5C[C@H](F)C6)nc4c3F)c12` (stereo partly drawn) [Example 13, 2-Amino-4-(6-chloro-8-fluoro-2-(((2R,7aS)-2-fluorotetrahydro-1H-pyrrolizin1 7a(5H)-yl)methoxy)-4-(2-oxo-1,6-diazaspiro[3.5]nonan-6-yl)quinazolin-7-yl)-7-fluorobenzo[b] thiophene-3-carbonitrile] are 5 nM, 5 nM and 2.21 µM.
The corresponding values for `N#CC[C@@H]1CCCN1c1nc(OC[C@@]23CCCN2C[C@H](F)C3)nc2c(F)c(-c3ccc(F)c4sc(N)c(C#N)c34)c(Cl)cc12` [Example 50, 2-Amino-4-(6-chloro-4-((S)-2-(cyanomethyl)pyrrolidin-1-yl)-8-fluoro-2-(((2R,7aS)-2-fluorotetrahydro-1H-pyrrolizin-7a(5H)-yl)methoxy)quinazolin-7-yl)-7-fluorobenzo[b] thiophene-3-carbonitrile] are 7 nM, 7 nM and 0.307 µM.
As for `C[C@@]1(O)CCCN(c2nc(OC[C@@]34CCCN3C[C@H](F)C4)nc3c(F)c(-c4ccc(F)c5sc(N)c(C#N)c45)c(Cl)cc23)C1` [Example 41, 2-Amino-4-(6-chloro-8-fluoro-2-(((2R,7aS)-2-fluorotetrahydro-1H-pyrrolizin-7a(5H)-yl)methoxy)-4-((R)-3-hydroxy-3-methylpiperidin-1-yl)quinazolin-7-yl)-7-fluorobenzo[b] thiophene-3-carbonitrile], the IC50 in test [1] was determined as 3 nM; in test [2] it was 4 nM; in test [3] (setting [4]), 0.288 µM.
On the same counts, the results for `N#Cc1c(N)sc2c(F)ccc(-c3c(Cl)cc4c(N5CCOCC(O)(C(F)F)C5)nc(OC[C@@]56CCCN5C[C@H](F)C6)nc4c3F)c12` (single isomer, unassigned) [Example 46] are 6 nM, 3 nM and 0.148 µM.

Values taken from patent US20250163064A1, “QUINAZOLINE COMPOUNDS AND USES THEREOF AS INHIBITORS OF MUTANT KRAS PROTEINS” (AMGEN INC., priority 2022, published 2025).
